Laboratory results as given in ChEMBL document CHEMBL1157990, “Iridal-type triterpenoids with ichthyotoxic activity from belamcanda chinensis” (J Nat Prod, 1999).
In brackets after ≈: the same amount, converted by molar mass.

Test: Ichthyotoxicity against Oryzias latipes after 24 hrs
Type: organism-based
Conditions: in vivo, read-out: TLm

Compound | LC50 at 24 h [µg/mL]
CCCCCCCCCCCCCC(=O)OCCC[C@@H]1/C(=C(/C)C=O)CC[C@](C)(O)[C@@]1(C)CC/C=C(\C)[C@@H](C/C=C(\C)CCC=C(C)C)OC(C)=O | > 10
CC(C)=CCC/C(C)=C/C=C/C(C)=C/[C@@H]1C[C@@]2(C(O)O1)[C@H](CCCO)/C(=C(/C)C=O)CC[C@]2(C)O (some centres not stated) | 5.5 (≈ 11.3 µM)
CC(=O)OCCC[C@@H]1/C(=C(/C)C=O)CC[C@](C)(O)[C@@]1(C)CC/C=C(\C)[C@H](O)C/C=C(\C)CCC=C(C)C | 0.8 (≈ 1.55 µM)
CC(=O)OCCC[C@@H]1/C(=C(/C)C=O)CC[C@](C)(O)[C@@]1(C)CC/C=C(\C)[C@@H](C/C=C(\C)CCC=C(C)C)OC(C)=O | > 10
C=C(/C=C/C=C(\C)CCC=C(C)C)[C@@H]1CC[C@]2([C@H](CCCO)/C(=C(/C)C=O)CC[C@]2(C)O)[C@@H]1O | 1.6 (≈ 3.4 µM)
CCCCCCCCCC(=O)OCCC[C@@H]1/C(=C(/C)C=O)CC[C@](C)(O)[C@@]1(C)CC/C=C(\C)[C@@H](C/C=C(\C)CCC=C(C)C)OC(C)=O | > 30
CC(C)=CCC/C(C)=C/C=C/C(C)=C/[C@@H]1C[C@@]23[C@H](OCCC[C@@H]2/C(=C(/C)C=O)CC[C@]3(C)O)O1 [ANHYDROBELACHINAL] | > 10
CC(C)=CCC/C(C)=C/C=C/C(C)=C/[C@H]1C[C@@]2(C(O)O1)[C@H](CCCO)/C(=C(/C)C=O)CC[C@]2(C)O (some centres not stated) [BELACHINAL] | 2.8 (≈ 5.75 µM)
C=C1CC/C=C(\C)C(=O)[C@H](O)[C@@H]2[C@@H]1CC2(C)C [BUDDLEDIN B] | 1.2 (≈ 5.12 µM)
CC(C)=CCC/C(C)=C/C=C/C(C)=C/[C@H]1C[C@@]23[C@H](OCCC[C@@H]2/C(=C(/C)C=O)CC[C@]3(C)O)O1 [EPIANHYDROBELACHINAL] | > 10
CCCCCCCCCCCCCC(=O)OCCC[C@@H]1/C(=C(/C)C=O)CC[C@](C)(O)[C@@]1(C)CC/C=C(\C)[C@H](O)C/C=C(\C)CCC=C(C)C [IRISTECTORENE B] | 3.5 (≈ 5.11 µM)
CC(C)=CCC/C(C)=C/C[C@@H](O)/C(C)=C/CC[C@@]1(C)[C@H](CCCO)/C(=C(/C)C=O)CC[C@]1(C)O [ISOIRIDOGERMANAL] | 9.3 (≈ 19.6 µM)
